Data published in paper PMC7759686, “Pharmacokinetics and Immunological Effects of Romidepsin in Rhesus Macaques” (Frontiers in Immunology, 2020).
“And” between values parts separate entries of the source, which are not always exact repeats. Equal entries are not always repeated.

Legend:
[1] = Serum chemistries (hepato-, nephro- and general toxicity markers); assay type: in vivo, rhesus macaques (Macaca mulatta); conditions: 3 RMs, 7 mg/m^2
Description: (§1) Complete blood counts (CBCs) and serum chemistries were monitored in the collected samples from both the RMD-treated RMs and control RMs by either the Marshfield Laboratories (Cleveland, OH), IDEXX Reference Laboratories (IDEXX Laboratories, Inc, Westbrook, ME) or in house, using a ProCyte Hematology Analyzer (IDEXX Laboratories, Inc).

CD8+ T cells = test: T lymphocyte functional assay (PMA/ionomycin stimulation, flow cytometry); assay type: in vivo, rhesus macaques (Macaca mulatta)
Description: To simplify the complication of RMD treatment and SIV infection, it was vital to assess the impact of RMD administration on the T-cell function, particularly on the cellular immune responses on uninfected RMs. Due to the incapability to assess the SIV-specific immune responses, the overall cytotoxic capacity of lymphocytes in the blood was assessed as follows. Frozen PBMCs were thawed, counted, and were either unstimulated or stimulated with PMA and ionomycin (Sigma, St. Louis, MO). PBMCs were stained with the following antibodies: CD3-V500 (SP34-2), CD4-APC (L200), CD8-PE-CF594 (RPA-T8), CD107a-APC-Cy7 (H4A3), Granzyme A-PerCP/Cy5.5 (CB9) (BioLegend), Granzyme B-Alexa Flour 700 (GB11), Granzyme K-FITC (GM6C3) (Santa Cruz Biotechnology, Dallas, TX), IFN-γ-FITC (4S.B3), and Perforin-PE (B-D48) (BioLegend); antibodies were from BD Biosciences unless otherwise noted. Stained PBMCs were then acquired on an LSR-II flow cytometer. Data were analyzed using FlowJo software (Treestar).
Previous studies reported conflicting data as to whether the functionality of CTLs is diminished by RMD administration ([41], [64]). Therefore, we performed functional assays on lymphocytes collected from superficial and mesenteric LNs and intestinal resections, focusing on the overall expression of the surrogate killing marker CD107a, along with granzymes A, B, and K, IFN-γ, and perforin with PMA and ionomycin stimulation ( Figure 11 ).

[2] = RMD pharmacokinetics in plasma and tissues (LC-MS/MS); conditions: 7 mg/m^2 4-h IV infusion; for RMD plasma concentration at 2 h postinfusion: second round
[3] = tested on: circulating lymphocytes, T cells, B cells and neutrophils; test: Immune cell counts in blood (CBC, TruCount flow cytometry); assay type: in vivo, rhesus macaques (Macaca mulatta); conditions: for CD8+ T cells in blood: baseline 1,047; for CD4+ T cells in blood: baseline 2,518; for total circulating lymphocytes: baseline 5,050, 3 RMs, 7 mg/m^2
Description: Figure 1 illustrates the sampling schedule. […] Intestinal biopsies were taken at 13 days prior to infusion; intestinal resections were taken at 30 days before infusion and 1 day postinfusion; LNs were collected at 30 and 13 days prior to infusion, 6 h postinfusion, and 1 and 7 days postinfusion. The samples collected during the first round of RMD treatment were used for immune population dynamics and functionality.
as §1
Whole blood was stained to monitor the impact of RMD on the immune cell populations. TruCount was used to determine absolute counts of CD3^+, CD4^+, CD8^+ T cells and CD20^+ B cells as described ([51]–[53]). Fifty microliters of whole blood were stained with antibodies against CD3-V450, CD4-APC, CD20-APC-H7, and CD45-PerCP in TruCount tubes (BD Biosciences, Franklin Lakes, NJ, USA) with a set number of fluorescent beads as internal standards. CD8^+ T cell counts were assessed through the ratio of CD8^+ to CD3^+ T cells. Whole blood was also stained with combinations of the following fluorescently labeled antibodies: CD3-V450 (SP34-2), CD4-APC (L200), CD8-PE-CF594 (RPA-T8), CD14-PE-Cy7 (M5E2), CD38-FITC (AT-1) (Stemcell, Vancouver, BC, CA), CD20-APC-H7 (2H7), CD69-APC-Cy7 (FN50), CD95-FITC (DX2), CCR5-PE (3A9), Annexin V-FITC, HLA-DR-PE-Cy7 (L243), NKG2A-PE (Z199) (Beckman Coulter, Pasadena, CA), Strepavidin-Alexa Fluor 750 (Life Technologies, Carlsbad, CA), Biotin-CCR7 (eBioscience, San Diego, CA), LIVE/DEAD Fixable Blue Dead Cell Stain Kit (Thermo Fisher Scientific); all antibodies were from BD Biosciences unless otherwise noted. For Ki-67-PE (B56) intracellular staining, cells were fixed and permeabilized prior to Ki-67 staining. Data were acquired with a LSR-II flow cytometer (BD Biosciences) or Fortessa flow cytometer (BD Biosciences) and analyzed with FlowJo software 10.7.0 (Treestar, Ashland, OR), as described ([51], [54]).

[4] = 3 days postinfusion, baseline 22
[5] = 4 days postinfusion, baseline 22
[6] = intestine, 2 days postinfusion, pretreatment 2%
[7] = mesenteric LN, 1 day postinfusion, pretreatment 2%
[8] = superficial LN, 2 days postinfusion, pretreatment 1%
[9] = superficial LN, 2 days postinfusion, pretreatment 4%
[10] = kel from mean concentration-time profile of 3 RMs

Q: Which results are given for `C/C=C1\NC(=O)[C@H]2CSSCC/C=C/[C@H](CC(=O)N[C@H](C(C)C)C(=O)N2)OC(=O)[C@H](C(C)C)NC1=O` [RMD, romidepsin]?
A: alanine aminotransferase (ALT) ([1]; 18 h postinfusion, baseline 22, normal range 14-94, not significant): 98 U/L; aspartate aminotransferase (AST) ([1]; 18 h postinfusion, baseline 39, normal range 31-108, p < 0.05): 186 U/L; creatinine ([1]; 3 days postinfusion, baseline 0.60): 0.63 mg/dL; alanine aminotransferase (ALT) [1, 4]: 89 U/L; urea nitrogen [1, 4]: 29 mg/dL; aspartate aminotransferase (AST) ([1]; 3 days postinfusion, baseline 39): 101 U/L; lactate dehydrogenase (LDH) ([1]; 3 days postinfusion, baseline 702, normal 514 ± 187): 1,562 U/L; alanine aminotransferase (ALT) [1, 5]: 80 U/L; urea nitrogen [1, 5]: 25 mg/dL; aspartate aminotransferase (AST) ([1]; 4 days postinfusion, baseline 39): 91 U/L; creatinine kinase (CK) ([1]; 4 days postinfusion, baseline 367): 1,740 U/L; lactate dehydrogenase (LDH) ([1]; 4 days postinfusion, baseline 702): 1,323 U/L; creatinine ([1]; peak, 18 h postinfusion, baseline 0.60, normal range 0.5-1.2): 0.77 mg/dL; urea nitrogen ([1]; peak, 18 h postinfusion, baseline 22, normal range 8-25): 35 mg/dL; creatinine kinase (CK) ([1]; peak, 18 h postinfusion, baseline 367, normal range 132-505, p < 0.05): 7,445 U/L; Granzyme K expression in CD8+ T cells (CD8+ T cells; intestine, 2 days postinfusion, pretreatment 1%): < 1%; CD107a expression in CD8+ T cells (CD8+ T cells; [6]): 1%; Granzyme A expression in CD8+ T cells (CD8+ T cells; [6]): < 1%; Perforin expression in CD8+ T cells (CD8+ T cells; intestines, 2 days postinfusion, pretreatment 1%): < 1%; IFN-γ expression in CD8+ T cells (CD8+ T cells; intestines, 2 days postinfusion, pretreatment 2%): 1%; Granzyme B expression in CD8+ T cells (CD8+ T cells; intestines, 2 days postinfusion, pretreatment 11%): 3%; CD107a expression in CD8+ T cells (CD8+ T cells; mesenteric LN, 1 day postinfusion, pretreatment 1%): < 1%; Granzyme K expression in CD8+ T cells (CD8+ T cells; [7]): < 1%; Perforin expression in CD8+ T cells (CD8+ T cells; [7]): < 1%; IFN-γ expression in CD8+ T cells (CD8+ T cells; mesenteric LN, 1 day postinfusion, pretreatment 5%): 3%; Granzyme B expression in CD8+ T cells (CD8+ T cells; mesenteric LN, 2 days postinfusion, pretreatment 5%): 2%; Granzyme A expression in CD8+ T cells (CD8+ T cells; mesenteric LNs, 1 day postinfusion, pretreatment 1%): < 1%; CD107a expression in CD8+ T cells (CD8+ T cells; [8]): < 1%; Granzyme K expression in CD8+ T cells (CD8+ T cells; [8]): < 1%; Perforin expression in CD8+ T cells (CD8+ T cells; [8]): < 1%; Granzyme B expression in CD8+ T cells (CD8+ T cells; [9]): 1%; IFN-γ expression in CD8+ T cells (CD8+ T cells; [9]): 1%; Granzyme A expression in CD8+ T cells (CD8+ T cells; superficial LNs, 2 days postinfusion, pretreatment 1%): < 1%; GI tract terminal half-life relative to plasma [2]: 1.8 fold; LN terminal half-life relative to plasma [2]: seven-fold longer; plasma concentration at 8 h postinfusion [2]: 5.16 nM; time with quantifiable concentrations in GI tract ([2]; last sampling 10 days): 10 days postinfusion; time with quantifiable concentrations in LNs ([2]; last sampling 10 days): 10 days postinfusion; mean terminal half-life in plasma ([2]; 3 SIV-naïve RMs, kel from semi-log regression of individual plasma data, observations after 96 h omitted): 15.3 h; RMD concentration in intestine at 4 h postinfusion ([2]; animal RM32): 354 ng/g; RMD plasma concentration at 2 h postinfusion ([2]; animal RM32, LC-MS/MS): 47 ng/mL; RMD concentration in intestine at 4 h postinfusion ([2]; animal RM33): 3,932 ng/g; RMD plasma concentration at 2 h postinfusion ([2]; animal RM33, LC-MS/MS): 7.7 ng/mL and 8 ng/mL; RMD plasma concentration at 2 h postinfusion ([2]; animal RM71, LC-MS/MS): 4.7 ng/mL and 5 ng/mL; plasma concentration at 2 h postinfusion ([2]; group value of 3 RMs): 19.9 ng/mL; RMD concentration in LNs at 4 h postinfusion ([2]; individual values of 3 RMs, superficial LNs, tissue density 1.0 g/ml assumed, LC-MS/MS): 70 ng/mL and 75 ng/mL and 101 ng/mL; mean terminal half-life in gastrointestinal tract [2, 10]: 28 h; mean terminal half-life in lymph nodes [2, 10]: 110 h; RMD concentration in GI tract at 4 h postinfusion, median ([2]; median of 3 RMs, intestinal biopsies, LC-MS/MS): 3,665 ng/g; CD8+ T cells in blood ([3]; 12 h postinfusion, p < 0.05): 204 cells/μl; CD4+ T cells in blood ([3]; 12 h postinfusion, p < 0.05): 402 cells/μl; neutrophils in blood ([3]; 12 h postinfusion, baseline 3,273, normal 6.2 ± 2.4 × 10^3, not significant): 14,287 cells/μl; total circulating lymphocytes ([3]; 12 h postinfusion, p < 0.05): 1,463 cells/μl; CD8+ T cells in blood ([3]; 1 day postinfusion, p < 0.05): 178 cells/μl; CD4+ T cells in blood ([3]; 1 day postinfusion, p < 0.05): 496 cells/µl; neutrophils in blood ([3]; 1 day postinfusion, baseline 3,273): 9,123 cell/µl; CD8+ T cells in blood ([3]; 2 days postinfusion, p < 0.05): 204 cells/μl; CD4+ T cells in blood ([3]; 2 days postinfusion, p < 0.05): 366 cells/μl; total circulating lymphocytes ([3]; 2 days postinfusion, p < 0.05): 1,753 cells/μl; CD4+ T cells in blood ([3]; 5 days postinfusion (recovery)): 1,305 cells/μl; CD8+ T cells in blood ([3]; 5 days postinfusion): 634 cells/μl; neutrophils in blood ([3]; 5 days postinfusion, baseline 3,273): 2,427 cells/μl; CD8+ T cells in blood ([3]; 7 days postinfusion (near full recovery)): 741 cells/μl; B cells (CD3−CD20+) in blood ([3]; RMD treated RMs, no change in saline control group): declined
